Experimental data from patent US11459324B2, “O-glycoprotein-2-acetamido-2-deoxy-3-D-glycopyranosidase inhibitors” (BIOGEN MA INC., priority 2018, dated 2022).

These compounds were tested against T1, Recombinant full length human OGA enzyme (Homo sapiens, UniProt O60502) (assay: OGA Enzyme Inhibition Biochemical Assay). Conditions: 1 nM OGA, 100 μM 4-MUGlcNAc (Km), pH 6.4, 90 minutes at room temperature, 10-point dose-response from 20 μM.
T1 construct: Recombinant full length human OGA enzyme was purchased from Origene; purchased Origene
T1 sequence (O60502 1-916): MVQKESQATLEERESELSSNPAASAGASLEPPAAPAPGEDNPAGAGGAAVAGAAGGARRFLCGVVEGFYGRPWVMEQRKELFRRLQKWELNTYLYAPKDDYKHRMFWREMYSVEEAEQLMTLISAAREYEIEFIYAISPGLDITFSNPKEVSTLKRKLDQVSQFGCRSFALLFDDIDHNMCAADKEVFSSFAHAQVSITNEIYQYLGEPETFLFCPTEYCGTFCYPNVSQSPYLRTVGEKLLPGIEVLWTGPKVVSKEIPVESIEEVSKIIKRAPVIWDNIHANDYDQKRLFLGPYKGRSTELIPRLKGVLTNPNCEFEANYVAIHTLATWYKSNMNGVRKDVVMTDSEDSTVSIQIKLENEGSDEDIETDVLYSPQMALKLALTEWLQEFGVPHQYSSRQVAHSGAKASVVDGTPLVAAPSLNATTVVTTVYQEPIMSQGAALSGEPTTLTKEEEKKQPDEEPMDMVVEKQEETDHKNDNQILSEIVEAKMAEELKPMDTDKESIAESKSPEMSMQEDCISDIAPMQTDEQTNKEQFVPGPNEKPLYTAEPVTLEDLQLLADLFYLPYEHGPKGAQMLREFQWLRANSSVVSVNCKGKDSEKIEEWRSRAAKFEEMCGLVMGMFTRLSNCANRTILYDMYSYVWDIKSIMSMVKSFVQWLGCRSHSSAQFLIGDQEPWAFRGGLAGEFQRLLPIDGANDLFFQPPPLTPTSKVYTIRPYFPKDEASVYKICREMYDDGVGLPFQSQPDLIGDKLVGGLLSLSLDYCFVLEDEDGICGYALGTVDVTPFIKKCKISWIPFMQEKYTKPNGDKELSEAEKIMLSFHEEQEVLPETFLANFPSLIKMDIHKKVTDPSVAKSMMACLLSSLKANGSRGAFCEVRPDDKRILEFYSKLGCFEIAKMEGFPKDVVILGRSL
Procedure: OGA Enzyme Inhibition Biochemical Assay
Recombinant full length human OGA enzyme was purchased from Origene. 4-MUGlCNAc substrate was purchased from Sigma. All other reagents were purchased from Sigma or Fisher. Assay buffer consists of the McIlvaine buffer system, pH 6.4 (0.2M Na2HPO4 mixed with 0.1M citric acid) and 0.01% BSA. Reactions consist of 1 nM OGA, 100 μM 4-MUGlcNAc (Km), and compound in a final volume of 10 μl. Reactions were incubated for 90 minutes at room temperature and quenched with 40 μl of 3M glycine, pH 10 and read on a Perkin Elmer Envision plate reader (Ex: 355 nm/Em: 460 nm). Compounds were tested with a 10-point dose-response starting from 20 μM with a 4-fold dilution. Data was fit using GraphPad Prism using a 4-parameter fit with variable slope.

CC(=O)Nc1ncc(CN2CCC[C@H](Cc3ncccn3)C2)s1 [Example 3-7, (R)-N-(5-((3-(pyrimidin-2-ylmethyl)piperidin-1-yl)methyl)thiazol-2-yl)acetamide] and COc1cnc(CC2CCCN(Cc3cnc(NC(C)=O)s3)C2)nc1 (stereo not drawn) [Example 2-4, N-(5-((3-((5-methoxypyrimidin-2-yl)methyl)piperidin-1-yl)methyl)thiazol-2-yl)acetamide] are the same in IC50: 2 nM for the first, 2 nM for the second.

Compared with COc1cc(C[C@H]2C[C@H](C)N(Cc3sc(NC(C)=O)nc3F)C2)ncn1 [Example 3-46, N-(4-fluoro-5-(((2S,4R)-4-((6-methoxypyrimidin-4-yl)methyl)-2-methylpyrrolidin-1-yl)methyl)thiazol-2-yl)acetamide], COc1cc(C[C@@H]2CCN(Cc3sc(NC(C)=O)nc3F)C2)ncn1 [Example 3-34, (S)—N-(4-fluoro-5-((3-((6-methoxypyrimidin-4-yl)methyl)pyrrolidin-1-yl)methyl)thiazol-2-yl)acetamide] is higher in IC50: less than 1 nM for the first, 8 nM for the second.

Going from CC(=O)Nc1ncc(CN2CCC(Cc3ccc(F)cc3)C2)s1 (stereo not drawn) [Example 1-17, N-(5-((3-(4-fluorobenzyl)pyrrolidin-1-yl)methyl)thiazol-2-yl)acetamide] to COc1ccc(CC2CCCN(Cc3cnc(NC(C)=O)s3)C2)cn1 (stereo not drawn) [Example 1-11, N-(5-((3-((6-methoxypyridin-3-yl)methyl)piperidin-1-yl)methyl)thiazol-2-yl)acetamide], the IC50 falls from 180 nM to 4 nM (45-fold).

First: CC(=O)Nc1ncc(CN2CC(F)CC(Cc3ncc(F)cn3)C2)s1 (stereo not drawn) [Example 3-2, N-(5-((3-fluoro-5-((5-fluoropyrimidin-2-yl)methyl)piperidin-1-yl)methyl)thiazol-2-yl)acetamide]
Second: CC(=O)Nc1ncc(CN2C[C@@H](Cc3ncc(F)cn3)C[C@H]2C(F)(F)F)s1 (single isomer, unassigned) [Example 2-45]
The IC50 of the first is 12-fold lower: 11 nM for the first, 130 nM for the second. The first is the more potent here.

Going from COc1cc(C(C)C2CCN(Cc3sc(NC(C)=O)nc3F)C2)ncn1 (stereo not drawn) [Example 2-52, N-(4-fluoro-5-((3-(1-(6-methoxypyrimidin-4-yl)ethyl)pyrrolidin-1-yl)methyl)thiazol-2-yl)acetamide] to CC(=O)Nc1nc(F)c(CN2CC[C@H](Cc3ncc(F)cn3)C2)s1 [Example 3-26, (R)-N-(4-fluoro-5-((3-((5-fluoropyrimidin-2-yl)methyl)pyrrolidin-1-yl)methyl)thiazol-2-yl)acetamide], the IC50 rises from 1.7 nM to 6.2 nM (3.6-fold).

Compared with CC(=O)Nc1ncc(CN2CCCC(Cc3cncs3)C2)s1 (stereo not drawn) [Example 1-37, N-(5-((3-(thiazol-5-ylmethyl)piperidin-1-yl)methyl)thiazol-2-yl)acetamide], CC(=O)Nc1ncc(CN2CCCC(Cc3cccnc3)C2)s1 (stereo not drawn) [Example 1-27, N-(5-((3-(pyridin-3-ylmethyl)piperidin-1-yl)methyl)thiazol-2-yl)acetamide] is 2.8-fold higher in IC50: 4 nM for the first, 11 nM for the second. The first is the more potent here.

Going from CC(=O)Nc1ncc(CN2CCCC(Cn3ccnn3)C2)s1 (stereo not drawn) [Example 4-20, N-(5-((3-((1H-1,2,3-triazol-1-yl)methyl)piperidin-1-yl)methyl)thiazol-2-yl)acetamide] to CC(=O)Nc1ncc(CN2CCCC(Cn3cc(C(C)C)cn3)C2)s1 (stereo not drawn) [Example 4-7, N-(5-((3-((4-isopropyl-1H-pyrazol-1-yl)methyl)piperidin-1-yl)methyl)thiazol-2-yl)acetamide], the IC50 rises from 55 nM to 380 nM (6.9-fold).

Compared with CC(=O)Nc1ncc([C@@H](C)N2CCC[C@H](Cc3ncc(F)cn3)C2)s1 (single isomer, unassigned) [Example 2-10], CC(=O)Nc1nnc(CN2CCC[C@H](Cc3ncc(F)cn3)C2)s1 (stereo in doubt) [Example 3-14, N-(5-((3-((5-fluoropyrimidin-2-yl)methyl)piperidin-1-yl)methyl)-1,3,4-thiadiazol-2-yl)acetamide] is 2.4-fold lower in IC50: 29 nM for the first, 12 nM for the second.

Compared with COc1ccnc(C[C@H]2CCN(Cc3cnc(NC(C)=O)s3)C2)n1 [Example 3-12, (R)-N-(5-((3-((4-methoxypyrimidin-2-yl)methyl)pyrrolidin-1-yl)methyl)thiazol-2-yl)acetamide], CC(=O)Nc1ncc(CN2CC[C@H](Cc3nccc(C)n3)C2)s1 [Example 3-10, (R)-N-(5-((3-((4-methylpyrimidin-2-yl)methyl)pyrrolidin-1-yl)methyl)thiazol-2-yl)acetamide] is 1.6-fold higher in IC50: 9 nM for the first, 14 nM for the second. The first is the more potent here.

First: CC(=O)Nc1ncc(CN2CCCC(Cc3nnc4ccccn34)C2)s1 (stereo not drawn) [Example 4-23, N-(5-((3-([1,2,4]triazolo[4,3-a]pyridin-3-ylmethyl)piperidin-1-yl)methyl)thiazol-2-yl)acetamide]
Second: CC(=O)Nc1ncc(CN2CCCC(Cc3ccc(C)cn3)C2)s1 (stereo not drawn) [Example 1-31, N-(5-((3-((5-methylpyridin-2-yl)methyl)piperidin-1-yl)methyl)thiazol-2-yl)acetamide]
The IC50 of the first is 5.4-fold higher: 27 nM for the first, 5 nM for the second. The second is the more potent here.

Going from CC(=O)Nc1ncc(CN2CCC(C)(Cc3ncc(F)cn3)C2)s1 (stereo not drawn) [Example 2-35, N-(5-((3-((5-fluoropyrimidin-2-yl)methyl)-3-methylpyrrolidin-1-yl)methyl)thiazol-2-yl)acetamide] to CC(=O)Nc1ncc(CN2CCC(F)(Cc3ncc(F)cn3)C2)s1 (stereo not drawn) [Example 2-16, N-(5-((3-fluoro-3-((5-fluoropyrimidin-2-yl)methyl)pyrrolidin-1-yl)methyl)thiazol-2-yl)acetamide], the IC50 falls from 1600 nM to 880 nM (1.8-fold). The second is the more potent here.

Compared with CC(=O)N(C)c1nc(F)c(CN2CC[C@H](Cc3ncc(F)cn3)C2)s1 [Example 3-37, (R)-N-(4-fluoro-5-((3-((5-fluoropyrimidin-2-yl)methyl)pyrrolidin-1-yl)methyl)thiazol-2-yl)-N-methylacetamide], CC(=O)Nc1nc(F)c(CN2C[C@H](Cc3ncc(F)cn3)C[C@H]2C)s1 [Example 3-39, N-(4-fluoro-5-(((2R,4S)-4-((5-fluoropyrimidin-2-yl)methyl)-2-methylpyrrolidin-1-yl)methyl)thiazol-2-yl)acetamide] is 3.9-fold higher in IC50: 79 nM for the first, 310 nM for the second. The first is the more potent here.

First: CC(=O)Nc1ncc(CN2CCCC(Cc3cncc(C(F)(F)F)n3)C2)s1 (stereo not drawn) [Example 1-26, N-(5-((3-((6-(trifluoromethyl)pyrazin-2-yl)methyl)piperidin-1-yl)methyl)thiazol-2-yl)acetamide]
Second: CC(=O)Nc1ncc(CN2CCCC(Cn3cc(C(F)(F)F)cn3)C2)s1 (stereo not drawn) [Example 4-3, N-(5-((3-((4-(trifluoromethyl)-1H-pyrazol-1-yl)methyl)piperidin-1-yl)methyl)thiazol-2-yl)acetamide]
The IC50 of the first is 32-fold lower: 30 nM for the first, 960 nM for the second.

First: CCc1cc2c(CC3CCCN(Cc4cnc(NC(C)=O)s4)C3)ncnc2s1 (stereo not drawn) [Example 1-41, N-(5-((3-((6-ethylthieno[2,3-d]pyrimidin-4-yl)methyl)piperidin-1-yl)methyl)thiazol-2-yl)acetamide]
Second: CC(=O)Nc1ncc(CN2CCCC(Cc3nc(C)nc4ccsc34)C2)s1 (stereo not drawn) [Example 1-43, N-(5-((3-((2-methylthieno[3,2-d]pyrimidin-4-yl)methyl)piperidin-1-yl)methyl)thiazol-2-yl)acetamide]
The IC50 of the first is 3-fold lower: 1 nM for the first, 3 nM for the second.

CC(=O)Nc1ncc(CN2CCC[C@H](Cc3ncc(C(F)F)cn3)C2)s1 [Example 3-6, (R)-N-(5-((3-((5-(difluoromethyl)pyrimidin-2-yl)methyl)piperidin-1-yl)methyl)thiazol-2-yl)acetamide] and CC(=O)Nc1ncc(CN2CC[C@H](C)[C@@H](Cc3ncc(F)cn3)C2)s1 (single isomer, unassigned) [Example 2-37] are the same in IC50: 2 nM for the first, 2 nM for the second.
